Test results from ChEMBL document CHEMBL5465560, “Selectivity Literature for EUbOPEN Chemogenomic Library” (2024).
Blank lines part the entries; values can stand above or below the compound they belong to.

Experiments:
[1] = biological target: T1, Mitogen-activated protein kinase kinase kinase 3 (Homo sapiens) (UniProt Q99759); assay: Selectivity interaction (KinomeScan (DiscoverX)) EUB0000655a MAP3K3; conditions: at 10 µM
T1 sequence (whole entry): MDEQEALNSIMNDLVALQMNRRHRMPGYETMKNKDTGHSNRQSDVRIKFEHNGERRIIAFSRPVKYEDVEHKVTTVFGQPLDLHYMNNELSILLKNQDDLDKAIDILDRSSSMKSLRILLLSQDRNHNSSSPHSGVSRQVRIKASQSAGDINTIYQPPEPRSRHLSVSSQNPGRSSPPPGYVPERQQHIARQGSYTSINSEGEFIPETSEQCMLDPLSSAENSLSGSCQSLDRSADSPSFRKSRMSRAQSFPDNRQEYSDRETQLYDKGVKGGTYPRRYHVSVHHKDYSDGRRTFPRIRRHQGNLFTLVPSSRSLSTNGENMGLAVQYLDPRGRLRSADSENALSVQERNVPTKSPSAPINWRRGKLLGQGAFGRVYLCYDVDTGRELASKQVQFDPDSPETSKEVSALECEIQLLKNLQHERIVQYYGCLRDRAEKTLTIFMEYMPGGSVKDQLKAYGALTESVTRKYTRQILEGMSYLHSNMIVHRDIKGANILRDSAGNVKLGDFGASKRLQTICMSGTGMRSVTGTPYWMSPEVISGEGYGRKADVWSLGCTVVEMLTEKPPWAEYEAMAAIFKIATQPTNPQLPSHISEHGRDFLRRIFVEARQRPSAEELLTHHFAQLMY

[2] = biological target: Homeodomain-interacting protein kinase 1 (Homo sapiens, UniProt Q86Z02); assay: Selectivity interaction (KinomeScan (DiscoverX)) EUB0001079a HIPK1; conditions: at 1 µM
[3] = biological target: Serine/threonine-protein kinase Nek7 (Homo sapiens) (UniProt Q8TDX7); assay: Selectivity interaction (KinomeScan (DiscoverX)) EUB0000607a NEK7; conditions: at 10 µM
[4] = biological target: T2, Protein kinase C iota type (Homo sapiens) (UniProt P41743); assay: Selectivity interaction (Kinase panel (KiNativ target engagement assay in Jurkat cells)) EUB0001635a PRKCI; format: cell-based; conditions: Selectivity number of off-targets 0.0, Selectivity number of targets 233.0, Source Knowledge https://www.sciencedirect.com/science/article/pii/S2451945619300674?via%3Dihub, at 1 µM
T2 sequence (whole entry): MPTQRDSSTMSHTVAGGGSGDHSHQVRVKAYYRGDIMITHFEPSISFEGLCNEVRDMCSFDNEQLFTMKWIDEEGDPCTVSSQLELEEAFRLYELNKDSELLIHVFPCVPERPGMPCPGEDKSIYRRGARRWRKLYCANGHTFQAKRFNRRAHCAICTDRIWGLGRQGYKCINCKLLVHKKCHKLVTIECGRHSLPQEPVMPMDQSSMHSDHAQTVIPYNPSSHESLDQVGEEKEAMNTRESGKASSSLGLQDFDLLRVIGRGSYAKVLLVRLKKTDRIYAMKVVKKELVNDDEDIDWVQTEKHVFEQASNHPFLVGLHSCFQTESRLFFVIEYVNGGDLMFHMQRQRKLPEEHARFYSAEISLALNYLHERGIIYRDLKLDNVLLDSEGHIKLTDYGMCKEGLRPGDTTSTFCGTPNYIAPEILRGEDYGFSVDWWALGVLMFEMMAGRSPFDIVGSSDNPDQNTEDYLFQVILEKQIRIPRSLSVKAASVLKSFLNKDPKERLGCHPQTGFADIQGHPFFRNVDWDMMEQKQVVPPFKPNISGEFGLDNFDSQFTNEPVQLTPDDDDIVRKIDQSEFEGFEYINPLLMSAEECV

[5] = biological target: Tyrosine-protein kinase JAK1 (Homo sapiens, UniProt P23458); assay: Selectivity interaction (ActivX KiNativ screen (kinase selectivity in THP-1 cell lysates)) EUB0000639a JAK1; format: subcellular; conditions: lysate, at 0.2 µM
[6] = biological target: T3, Serine/threonine-protein kinase RIO1 (Homo sapiens) (UniProt Q9BRS2); assay: Selectivity interaction (KinomeScan (DiscoverX)) EUB0001049a RIOK1; conditions: at 1 µM
T3 sequence (whole entry): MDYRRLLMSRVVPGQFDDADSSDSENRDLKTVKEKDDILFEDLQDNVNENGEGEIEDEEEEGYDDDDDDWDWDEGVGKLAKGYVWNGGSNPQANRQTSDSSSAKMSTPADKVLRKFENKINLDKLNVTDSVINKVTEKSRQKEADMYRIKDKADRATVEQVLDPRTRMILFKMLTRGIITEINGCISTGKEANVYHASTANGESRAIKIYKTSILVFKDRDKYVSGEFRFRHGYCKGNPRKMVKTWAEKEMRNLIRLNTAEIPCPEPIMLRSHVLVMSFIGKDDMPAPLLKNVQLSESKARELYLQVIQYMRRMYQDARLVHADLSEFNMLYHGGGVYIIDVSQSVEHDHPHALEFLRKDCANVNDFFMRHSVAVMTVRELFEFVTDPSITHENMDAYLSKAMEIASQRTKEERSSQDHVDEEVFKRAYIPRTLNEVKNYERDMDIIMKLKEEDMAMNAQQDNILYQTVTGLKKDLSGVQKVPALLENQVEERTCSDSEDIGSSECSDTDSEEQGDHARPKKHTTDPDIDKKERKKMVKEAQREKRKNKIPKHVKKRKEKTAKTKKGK

[7] = test system: Epidermal growth factor receptor (Homo sapiens), P00533 [T790M]; assay: (§1) Selectivity interaction (KinomeScan (DiscoverX)) EUB0000666a EGFR; conditions: at 10 µM
[8] = test system: Epidermal growth factor receptor (Homo sapiens), P00533 [G719S]; assay: as §1; conditions: at 10 µM
[9] = test system: Epidermal growth factor receptor (Homo sapiens), P00533 [UNDEFINED MUTATION]; assay: as §1; conditions: at 10 µM
[10] = test system: Epidermal growth factor receptor (Homo sapiens), P00533 [L858R]; assay: as §1; conditions: at 10 µM
Chain of Epidermal growth factor receptor (Homo sapiens), P00533 [L858R] (P00533 whole entry L858R): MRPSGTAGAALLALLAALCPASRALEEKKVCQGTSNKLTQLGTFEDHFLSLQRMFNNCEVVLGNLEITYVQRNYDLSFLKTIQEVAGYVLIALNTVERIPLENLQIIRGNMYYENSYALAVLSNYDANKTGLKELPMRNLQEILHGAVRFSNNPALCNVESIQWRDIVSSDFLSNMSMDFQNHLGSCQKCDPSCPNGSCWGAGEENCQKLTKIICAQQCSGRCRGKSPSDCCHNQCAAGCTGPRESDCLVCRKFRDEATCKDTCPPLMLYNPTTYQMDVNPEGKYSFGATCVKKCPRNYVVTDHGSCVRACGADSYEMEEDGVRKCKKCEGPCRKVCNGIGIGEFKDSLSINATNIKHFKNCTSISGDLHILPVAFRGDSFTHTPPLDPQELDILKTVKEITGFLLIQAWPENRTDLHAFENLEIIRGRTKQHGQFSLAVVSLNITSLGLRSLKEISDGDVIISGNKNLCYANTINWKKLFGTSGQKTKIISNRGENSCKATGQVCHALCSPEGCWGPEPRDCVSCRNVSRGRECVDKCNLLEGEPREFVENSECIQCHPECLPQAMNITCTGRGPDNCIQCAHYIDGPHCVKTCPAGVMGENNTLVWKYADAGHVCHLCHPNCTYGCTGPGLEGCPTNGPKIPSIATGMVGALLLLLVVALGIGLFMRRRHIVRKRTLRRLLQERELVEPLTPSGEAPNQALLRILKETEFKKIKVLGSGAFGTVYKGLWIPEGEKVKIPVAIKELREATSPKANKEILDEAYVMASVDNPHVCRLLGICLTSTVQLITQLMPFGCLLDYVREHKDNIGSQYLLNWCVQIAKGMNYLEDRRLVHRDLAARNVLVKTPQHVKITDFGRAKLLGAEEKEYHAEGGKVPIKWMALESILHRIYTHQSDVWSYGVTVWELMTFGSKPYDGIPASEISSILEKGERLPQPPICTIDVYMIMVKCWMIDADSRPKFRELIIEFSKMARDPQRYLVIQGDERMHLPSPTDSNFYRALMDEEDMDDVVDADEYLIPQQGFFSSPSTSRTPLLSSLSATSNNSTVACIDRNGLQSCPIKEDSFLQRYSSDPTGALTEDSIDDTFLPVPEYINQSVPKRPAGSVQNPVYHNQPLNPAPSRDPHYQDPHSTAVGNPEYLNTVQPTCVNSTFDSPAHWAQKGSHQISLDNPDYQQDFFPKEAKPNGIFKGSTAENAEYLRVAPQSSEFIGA

Chain of Epidermal growth factor receptor (Homo sapiens), P00533 [UNDEFINED MUTATION] (P00533 whole entry, looked up, stated change not applied): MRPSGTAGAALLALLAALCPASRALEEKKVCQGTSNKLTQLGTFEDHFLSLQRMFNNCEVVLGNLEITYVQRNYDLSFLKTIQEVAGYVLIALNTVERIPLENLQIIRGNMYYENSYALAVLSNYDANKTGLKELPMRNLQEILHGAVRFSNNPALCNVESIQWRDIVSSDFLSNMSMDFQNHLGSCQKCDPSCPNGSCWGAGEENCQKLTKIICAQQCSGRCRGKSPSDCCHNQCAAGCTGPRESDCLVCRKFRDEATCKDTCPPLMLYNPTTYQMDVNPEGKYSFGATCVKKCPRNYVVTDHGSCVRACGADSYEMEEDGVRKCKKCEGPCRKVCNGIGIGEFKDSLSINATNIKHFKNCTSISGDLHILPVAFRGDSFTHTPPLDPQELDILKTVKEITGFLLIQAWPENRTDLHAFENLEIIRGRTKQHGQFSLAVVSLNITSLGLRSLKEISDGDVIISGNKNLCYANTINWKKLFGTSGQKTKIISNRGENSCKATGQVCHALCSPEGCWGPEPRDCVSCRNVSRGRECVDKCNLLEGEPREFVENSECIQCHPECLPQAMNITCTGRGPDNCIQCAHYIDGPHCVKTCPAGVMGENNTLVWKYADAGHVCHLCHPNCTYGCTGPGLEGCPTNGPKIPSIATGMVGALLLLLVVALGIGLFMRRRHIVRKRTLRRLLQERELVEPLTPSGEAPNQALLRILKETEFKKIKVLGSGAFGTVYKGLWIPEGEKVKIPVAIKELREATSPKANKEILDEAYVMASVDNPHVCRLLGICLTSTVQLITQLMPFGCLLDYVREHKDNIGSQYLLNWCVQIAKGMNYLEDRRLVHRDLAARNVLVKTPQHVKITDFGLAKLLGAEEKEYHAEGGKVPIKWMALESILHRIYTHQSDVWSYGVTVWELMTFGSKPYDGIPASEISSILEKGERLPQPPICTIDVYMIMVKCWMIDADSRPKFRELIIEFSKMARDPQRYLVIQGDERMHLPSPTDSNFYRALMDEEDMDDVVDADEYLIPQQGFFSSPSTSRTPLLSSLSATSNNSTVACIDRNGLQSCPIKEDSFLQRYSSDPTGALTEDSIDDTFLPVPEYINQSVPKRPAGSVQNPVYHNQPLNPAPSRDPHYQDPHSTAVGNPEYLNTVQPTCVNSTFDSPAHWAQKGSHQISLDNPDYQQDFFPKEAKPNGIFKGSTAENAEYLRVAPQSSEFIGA
Chain of Serine/threonine-protein kinase Nek7 (Homo sapiens) (Q8TDX7 whole entry, looked up): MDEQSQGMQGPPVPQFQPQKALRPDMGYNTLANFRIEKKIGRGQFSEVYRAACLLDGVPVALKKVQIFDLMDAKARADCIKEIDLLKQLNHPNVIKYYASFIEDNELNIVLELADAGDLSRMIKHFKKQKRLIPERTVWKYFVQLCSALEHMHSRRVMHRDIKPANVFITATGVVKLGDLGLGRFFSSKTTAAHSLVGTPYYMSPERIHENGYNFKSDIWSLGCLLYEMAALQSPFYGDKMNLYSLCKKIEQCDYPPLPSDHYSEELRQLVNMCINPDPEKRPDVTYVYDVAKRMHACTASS
Chain of Epidermal growth factor receptor (Homo sapiens), P00533 [T790M] (P00533 whole entry T790M): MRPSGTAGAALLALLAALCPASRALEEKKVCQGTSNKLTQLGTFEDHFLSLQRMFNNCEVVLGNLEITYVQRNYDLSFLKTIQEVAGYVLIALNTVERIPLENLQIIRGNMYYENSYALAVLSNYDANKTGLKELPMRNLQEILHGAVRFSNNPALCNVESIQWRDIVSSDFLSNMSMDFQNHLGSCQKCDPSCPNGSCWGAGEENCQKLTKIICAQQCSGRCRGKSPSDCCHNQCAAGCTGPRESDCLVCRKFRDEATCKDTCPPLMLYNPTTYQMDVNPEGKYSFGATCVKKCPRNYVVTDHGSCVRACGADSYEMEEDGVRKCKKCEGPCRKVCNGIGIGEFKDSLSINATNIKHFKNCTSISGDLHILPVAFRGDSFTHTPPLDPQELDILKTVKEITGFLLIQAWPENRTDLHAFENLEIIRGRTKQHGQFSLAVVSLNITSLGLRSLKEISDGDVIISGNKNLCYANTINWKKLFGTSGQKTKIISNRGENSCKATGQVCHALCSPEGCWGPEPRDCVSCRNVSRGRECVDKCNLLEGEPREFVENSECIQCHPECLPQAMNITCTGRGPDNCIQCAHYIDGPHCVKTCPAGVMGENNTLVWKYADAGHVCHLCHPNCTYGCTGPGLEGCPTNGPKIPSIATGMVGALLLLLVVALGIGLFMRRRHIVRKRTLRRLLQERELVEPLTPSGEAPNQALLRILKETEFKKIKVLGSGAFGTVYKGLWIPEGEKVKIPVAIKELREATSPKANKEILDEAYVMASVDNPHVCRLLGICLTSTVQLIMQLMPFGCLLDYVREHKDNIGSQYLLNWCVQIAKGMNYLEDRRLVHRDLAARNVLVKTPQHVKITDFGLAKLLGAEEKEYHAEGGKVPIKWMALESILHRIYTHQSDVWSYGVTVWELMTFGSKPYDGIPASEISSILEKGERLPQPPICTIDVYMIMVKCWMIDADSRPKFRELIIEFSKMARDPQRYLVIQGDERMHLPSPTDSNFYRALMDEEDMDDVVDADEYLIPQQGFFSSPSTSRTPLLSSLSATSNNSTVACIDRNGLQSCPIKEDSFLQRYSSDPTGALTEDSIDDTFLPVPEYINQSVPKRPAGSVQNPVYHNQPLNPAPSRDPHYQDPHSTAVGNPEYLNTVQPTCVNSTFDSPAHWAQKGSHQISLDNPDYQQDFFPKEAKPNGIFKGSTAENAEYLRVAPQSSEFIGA
Chain of Tyrosine-protein kinase JAK1 (P23458 whole entry): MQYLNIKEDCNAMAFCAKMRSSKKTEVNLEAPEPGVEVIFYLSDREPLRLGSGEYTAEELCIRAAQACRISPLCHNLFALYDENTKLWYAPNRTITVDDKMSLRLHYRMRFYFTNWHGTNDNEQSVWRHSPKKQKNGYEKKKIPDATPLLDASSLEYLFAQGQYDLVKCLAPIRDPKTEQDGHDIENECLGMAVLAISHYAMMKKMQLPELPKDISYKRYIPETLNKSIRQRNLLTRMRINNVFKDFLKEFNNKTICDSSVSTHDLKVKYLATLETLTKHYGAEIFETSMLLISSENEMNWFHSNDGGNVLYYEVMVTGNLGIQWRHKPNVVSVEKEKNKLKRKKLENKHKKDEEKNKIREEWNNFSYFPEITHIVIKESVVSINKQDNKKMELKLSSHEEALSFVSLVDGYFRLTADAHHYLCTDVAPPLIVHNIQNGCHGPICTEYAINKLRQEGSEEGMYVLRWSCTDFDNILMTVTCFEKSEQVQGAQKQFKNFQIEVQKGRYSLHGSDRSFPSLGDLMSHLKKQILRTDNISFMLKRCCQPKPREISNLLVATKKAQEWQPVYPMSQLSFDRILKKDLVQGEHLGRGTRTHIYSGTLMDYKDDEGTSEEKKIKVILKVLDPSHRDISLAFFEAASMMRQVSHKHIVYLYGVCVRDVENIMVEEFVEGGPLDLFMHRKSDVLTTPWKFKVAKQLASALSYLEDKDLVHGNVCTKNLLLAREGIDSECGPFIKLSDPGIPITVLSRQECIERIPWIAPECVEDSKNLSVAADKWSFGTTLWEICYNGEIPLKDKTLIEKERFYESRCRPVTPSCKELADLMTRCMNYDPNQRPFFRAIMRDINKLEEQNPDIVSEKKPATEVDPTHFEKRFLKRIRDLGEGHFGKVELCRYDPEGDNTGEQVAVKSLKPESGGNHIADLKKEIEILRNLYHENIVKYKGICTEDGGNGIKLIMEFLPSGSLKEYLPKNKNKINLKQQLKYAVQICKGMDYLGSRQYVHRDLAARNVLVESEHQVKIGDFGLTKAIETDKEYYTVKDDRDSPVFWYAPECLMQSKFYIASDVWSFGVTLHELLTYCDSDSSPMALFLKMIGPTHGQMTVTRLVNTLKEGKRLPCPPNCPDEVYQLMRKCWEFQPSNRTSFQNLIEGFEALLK

SMILES: CN(C)CCOc1ccc(-c2nc(-c3ccncc3)c(-c3ccc4c(c3)CC/C4=N\O)[nH]2)cc1
% of control [1]: 76%

SMILES: Nc1cnc(N2CCc3cc(S(=O)(=O)Nc4c(F)cc(Cl)cc4F)cc(N4CCCC4=O)c32)nc1 [TP-020n]
% of control [2]: 91%

SMILES: CNC(=O)Nc1ccc(-c2nc(N3CC4CCC(C3)O4)c3cnn(C4CCC5(CC4)OCCO5)c3n2)cc1
% of control [3]: 100%

SMILES: C=CC(=O)Nc1ccc(C(=O)Nc2[nH]nc3c2CN(C(=O)N[C@H](CN(C)C)c2ccccc2)C3(C)C)cc1
% of engagement [4]: 9.5%

% of inhibition [5]: -1.1%
SMILES: CC[C@@H]1[C@H](F)C(=O)N[C@@H]1COc1nccc2cc(C(N)=O)c(OC)cc12 [ZIMLOVISERTIB]

SMILES: COc1cc(Nc2nc(C)cc(-c3cnn4nc(OC)ccc34)n2)cc(C(F)(F)F)c1
% of control [6]: 89%

SMILES: O=C(NOC[C@H](O)CO)c1ccc(F)c(F)c1Nc1ccc(I)cc1F
% of control [7]: 77%
% of control [8]: 66%
% of control [9]: 84%
% of control [10]: 79%
